Source: patent US8193157B2, “Antiviral therapies” (priority 2005, dated 2012)
Values after ≈ are worked out from the molar mass of the structure shown. Like-named read-outs stand apart in the source and are kept apart here. Marks after values point to notes of the source that are not given here.

B1: UDA: GlcNAc-specific plant lectin from Urtica dioica (stinging nettle) (protein, UniProt P11218 24-372, looked up)
Lectin/endochitinase 1: QRCGSQGGGGTCPALWCCSIWGWCGDSEPYCGRTCENKCWSGERSDHRCGAAVGNPPCGQDRCCSVHGWCGGGNDYCSGSKCQYRCSSSVRGPRVALSGNSTANSIGNVVVTEPLFDQMFSHRKDCPSQGFYSYHSFLVAAESFPAFGTIGDVATRKREVAAFLAHISQATSGERSDVENPHAWGLCHINTTTVTENDFCTSSDWPCAAGKKYSPRGPIQLTHNFNYGLAGQAIGEDLIQNPDLVEKDPIISFKTALWFWMSQHDNKPSCHDIVLNANSAANRIPNKGVIGNIISRAFGHDDFAVRSSSIGFYKRYCDMLGVSYGHDLKYWFDNTPSSEFQRIQMRVAA

What was measured:
VSVpp = assay type: cell-based, VSV; details: read-out: EC50 VSVpp (C8166)
HCVpp (2b) = experiment: HCV pseudoparticle HCVpp (2b) entry into Huh7 cells, luciferase activity; assay type: cell-based; details: mean ±SD
Text: (§1) Production of pseudoparticles (HCVpp) and cell culture infection. To produce HCVpp, 293T cells (1.2×10^6) were lipofected at a 1:2 ratio of a NLluc^+env^− reporter vector and a vector expressing the HCV envelope glycoproteins as previously described (Bertaux and Dragic, 2006). HCV envelope glycoprotein-encoding sequences corresponding to subtypes 1b and 2b were PCR-amplified from patient sera starting from the last 60 amino acids in the Core to the end of glycoprotein E2. Supernatants were collected 48 hours post lipofection, filtered (0.45μ) and stored at −80° C. until further use. HCVpp were tested by infection of Huh7 cells (5×10^4) and measuring luciferase activity (relative light units, RLU) 48 hours post infection using the Luciferase assay system according to the manufacturer's instructions.
(§2) To measure inhibition of HCVpp (1a,1b,2b) entry into Huh7 cells by CBA and polyanions, an essentially similar procedure has been used as described above for infectious HCVcc (2a).
(§3) In order to reveal whether CBA also act at the level of HCV entry, we evaluated their ability to inhibit entry of pseudoparticles comprising the HCV envelope glycoproteins E1 and E2 into Huh-7 cells.

HIV-2 (strain ROD) = experiment: Anti-HIV assay, inhibition of HIV-2(ROD)-induced cytopathicity in CEM cells; assay type: cell-based; details: virus-induced cytopathicity, mean ±SD
HIV-1 (strain IIIB) = assay type: cell-based; details: for EC50: CEM cells
Influenza B = assay type: cell-based; details: MDCK cell cultures
Influenza A H3N2 = assay type: cell-based
[1] = tested on: HIV-1(IIIB) capture by Raji/DC-SIGN cells; experiment: Inhibition of HIV-1 capture by Raji/DC-SIGN cells (p24 Ag); assay type: cell-based; details: HIV-1 exposed 30 min to compound before addition to cells
Experimental: Inhibition of HIV-1 capture by Raji/DC-SIGN cells. HIV-1 particles (2.2 μg p24/ml) were exposed to serial dilutions of the test compounds (400 μl) for 30 min. Then, the drug-exposed virus suspensions (500 μl) were mixed with Raji/DC-SIGN cell suspensions (500 μl; 10^6 cells) for 60 min at 37° C. after which the cells were thoroughly washed twice with 40 ml culture medium as described above. […] The Raji/DC-SIGN cell cultures were then analysed for HIV-1 p24 Ag content.
Raji B-lymphocyte cells were modified to express DC-SIGN at their cell surface (Geijtenbeek et al., 2000; Wu et al., 2004). When Raji/DC-SIGN cells were exposed to cell-free HIV-1(IIIB) particles, they were able to efficiently capture the virus particles as evidenced by retention of p24 antigen of HIV-1 on the Raji/DC-SIGN cells (˜1200 pg p24). […] The CBA could prevent >90% of HIV-1 capture at concentrations >2 μM for GNA, HHA and CA; >10 μM for UDA and >60 μM for PRM-A.

Influenza A H1N1 = assay type: cell-based
HCVcc (subtype 2a) = experiment: Infectious HCVcc (subtype 2a) infection of Huh7 cells, luciferase activity; assay type: cell-based, HCV
Experimental: Huh7 cells (2×10^4) were plated and 24 hours later infected with supernatants containing infectious HCVcc pre-mixed with serial dilutions of lectins or polyanions. Mannan (2.5 mg/ml; Sigma) was added to some of the mixtures prior to Huh7 infection. After 24 hours post infection, the mixture of virus and test compounds was replaced by fresh medium, cells were brought at 37° C. and luciferase activity was measured in the cell lysates 24 hours later.
The inhibitory activities of carbohydrate binding small molecules and agents against infectious HIV-1 (strain IIIB), HIV-2 (strain ROD) and HCVcc (subtype 2a) were evaluated in human T lymphocyte cells (CEM) and human hepatocellular carcinoma cells (Huh-7), respectively (Table 1). […] The effect of mannan on the antiviral activity of the CBA was investigated.

HCVpp (1a) = experiment: HCV pseudoparticle HCVpp (1a) entry into Huh7 cells, luciferase activity; assay type: cell-based; details: for EC50: Huh7 cells, luciferase activity, mean ±SD
Text: as §1, §2, §3

HCVpp (1b) = experiment: HCV pseudoparticle HCVpp (1b) entry into Huh7 cells, luciferase activity; assay type: cell-based; details: mean ±SD
Text: as §1, §2, §3

HIV-1 (NL4.3) = experiment: Anti-HIV activity of Alcian Blue against HIV-1 (NL4.3) in CEM cells
Experimental: Compounds were tested against HIV-1 strains (HE, NL43, MN, IIIB), HIV-2 strains (ROD, EHO, RF), and SIV (MAC251) for inhibition of virus-induced cytopathicity in MT-4 cells (or CEM or C8166 or Molt4/C8 cells), using the colorimetric test described by Pauwels et al. in J. Virol. […] For example microtiter 96-well plates containing ˜3×10^5 CEM cells/ml, infected with 100 CClD50 of HIV per ml and containing appropriate dilutions of the test compounds were used.
A rapid and automated assay procedure was used for the in vitro evaluation of anti-HIV agents. An HTLV-1 transformed T4-cell line MT-4, which was previously shown to be highly susceptible to and permissive for HIV infection, can serve as the target cell line. Inhibition of the HIV-induced cytopathogenic effect was used as the end point. The viability of both HIV- and mock-infected cells was also assessed spectrophotometrically via in situ reduction of 3(4,5-dimethylthiazol-2-yl)-2,5-diphenyltetrazolium bromide (MTT). Methods comprise for example the microscopic examination of CEM, C8166 or Molt4/C8 giant (syncytium) cell formation, after 4 to 5 days of incubation at 37° C. in a CO2-controlled humidified atmosphere. […] The percent protection achieved by the compound in HIV-infected cells is calculated by the following formula:

HUT-78/HIV + Sup T-1 = experiment: Giant cell formation in a co-cultivation assay HUT-78/HIV + Sup T-1; assay type: cell-based
[2] = tested on: AB-resistant HIV-1 (N44.3), glycan deletions N461P and N635K; experiment: Anti-HIV activity against AB-resistant HIV-1 strain in CEM cells; assay type: cell-based; details: AB-resistant virus strain (N461P, N635K)
[3] = in the presence of mannan 2.5 mg/ml, read-out: HIV-1 EC50 +Mannan (2.5 mg/ml)
[4] = virus-induced cytopathicity, mean ±SD, read-out: EC50 HIV-1(IIIB) (CEM)
[5] = without mannan (Table 3), read-out: HIV-1 EC50 As such
[6] = in the presence of mannan 2.5 mg/ml, read-out: HCV(2a) EC50 +Mannan (2.5 mg/ml)
[7] = luciferase activity, mean ±SD, read-out: EC50 HCV (2a) (Huh7)
[8] = without mannan (Table 3), read-out: HCV(2a) EC50 As such

Molecule	EC50 (VSVpp) [µM]	EC50 (HCVpp (2b)) [µM]	EC50 (HIV-2 (strain ROD)) [µM]	EC50 (HIV-1 (strain IIIB); [3]) [µM]	EC50 (HIV-1 (strain IIIB); [4]) [µM]	EC50 (HIV-1 (strain IIIB); [5]) [µM]	EC50 Influenza B (Influenza B) [mg/L]	EC50 Influenza A H3N2 (Influenza A H3N2) [mg/L]	concentration preventing >90% of HIV-1 capture by Raji/DC-SIGN cells [1] [µM]	EC50 Influenza A H1N1 (Influenza A H1N1) [mg/L]	EC50 (HCVcc (subtype 2a); [6]) [µM]	EC50 (HCVcc (subtype 2a); [7]) [µM]	EC50 (HCVcc (subtype 2a); [8]) [µM]	EC50 (HCVpp (1a)) [µM]	EC50 (HCVpp (1b)) [µM]	EC50 HIV-1 (NL4.3) (CEM) (HIV-1 (NL4.3)) [mg/L]	EC50 HUT-78/HIV + Sup T-1 (HUT-78/HIV + Sup T-1)	EC50 HIV-1R (N44.3) (CEM) [2] [mg/L]	EC50 HCVpp (1a) (HCVpp (1a); Alcian Blue table)	decrease of antiviral activity against HIV-1 in the presence of mannan (HIV-1 (strain IIIB); mannan) [fold]
CN[C@@H]1[C@H](O[C@@H]2OC[C@@H](O)[C@H](O)[C@H]2O)[C@@H](O)[C@H](O[C@H]2c3cc(C)c(C(=O)N[C@H](C)C(=O)O)c(O)c3-c3c(cc4c(c3O)C(=O)c3cc(OC)cc(O)c3C4=O)[C@@H]2O)O[C@@H]1C [PRM-A, pradimicin A, reference compound]	> 60	0.924 ± 0.156	1.8	40 ± 13	3.36 ± 1.2	5.3 ± 0.78	2.4 (≈ 2.85 µM)	1.6 (≈ 1.9 µM)	> 60	1.9 (≈ 2.26 µM)	> 30	3.61 ± 0.78	3.61 ± 0.78	1.17 ± 0.31	1.67 ± 0.06					
Alcian Blue							>20	>20		>20						5 ± 1	4.5 ± 1.5^c μg/ml	>50	30^d μg/ml	
B1	> 11	0.05 ± 0.054	0.391 ± 0.106	0.459	0.14 ± 0.04	0.149 ± 0.04		0.99	> 10	4.1	0.56 ± 0.108	0.176 ± 0.029	0.176 ± 0.029	0.032 ± 0.015	0.019 ± 0.022					3
